Values of other authors in patent publication US20170020817A1, “SOLID NANOPARTICLE FORMULATION OF MICROTUBLE INHIBITORS WITH REDUCED OSTWALD REPENING FOR ORAL ADMINISTRATION” (Luminus Biosciences, Inc., priority 2013, published 2017).

How the values were obtained:
microtubules = settings: most test systems

Compound | effectiveness relative to epothilone A (microtubules) | solubility in water
C/C(=C\c1csc(C)n1)[C@@H]1C[C@@H]2O[C@]2(C)CCC[C@H](C)[C@H](O)[C@@H](C)C(=O)C(C)(C)[C@@H](O)CC(=O)O1 [epothilone B] | approximately ten-time more effective | –
C/C(=C\c1csc(C)n1)[C@@H]1C[C@@H]2O[C@]2(C)CCC[C@H](C)[C@H](O)[C@@H](C)C(=O)C(C)(C)[C@@H](O)CC(=O)N1 [Ixabepilone] | – | about 3.5 mg/L
CC(=O)O[C@H]1C(=O)[C@@]2(C)[C@H]([C@H](OC(=O)c3ccccc3)[C@]3(O)C[C@H](OC(=O)[C@H](O)[C@@H](NC(=O)c4ccccc4)c4ccccc4)C(C)=C1C3(C)C)[C@]1(OC(C)=O)CO[C@@H]1C[C@@H]2O [paclitaxel] | – | about 0.4 mg/L
CO[C@H]1C(=O)[C@]2(C)[C@@H](OC)C[C@H]3OC[C@@]3(OC(C)=O)[C@H]2[C@H](OC(=O)c2ccccc2)[C@]2(O)C[C@H](OC(=O)[C@H](O)[C@@H](NC(=O)OC(C)(C)C)c3ccccc3)C(C)=C1C2(C)C [cabazitaxel] | – | about 8 mg/L
CC(=O)O[C@@]12CO[C@@H]1C[C@H](O)[C@@]1(C)C(=O)[C@H](O)C3=C(C)[C@@H](OC(=O)[C@H](O)[C@@H](NC(=O)OC(C)(C)C)c4ccccc4)C[C@@](O)([C@@H](OC(=O)c4ccccc4)[C@H]21)C3(C)C [docetaxel] | – | about 14 mg/L
